This note sets out measurements from patent US20230348424A1, “HETEROCYCLIC COMPOUNDS AND METHODS OF USE” (Schrödinger, Inc., priority 2022, published 2023).

For this experiment, the target named is SOS1:KRAS (G12C) interaction (Homo sapiens (Human), UniProt Q07889). The experiment in a line: SOS1 KRas(G12C) FRET Assay. Type of experiment: binding. The following applies: 0.5 nM His10-SOS1 (res. 564-1049), 2.5 nM GST-KRAS G12C (res. 1-169), 2 hrs at RT. In outline: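 GST-KRAS G12C (res. 1-169) at 2.5 nM and His10-SOS1 (res. 564-1049) at 0.5 nM, final, in PBS with 0.1% BSA, 5 mM MgCl2, 100 mM KF, 5 mM DTT and 0.5% DMSO. After 2 h at RT, FRET read at 665/615 nm and normalized to DMSO and no-SOS1 controls. IC50 by non-linear regression.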

Molecules are shown by their SMILES.

Chain of SOS1:KRAS (G12C) interaction (Q07889 564-1049, stated change not applied): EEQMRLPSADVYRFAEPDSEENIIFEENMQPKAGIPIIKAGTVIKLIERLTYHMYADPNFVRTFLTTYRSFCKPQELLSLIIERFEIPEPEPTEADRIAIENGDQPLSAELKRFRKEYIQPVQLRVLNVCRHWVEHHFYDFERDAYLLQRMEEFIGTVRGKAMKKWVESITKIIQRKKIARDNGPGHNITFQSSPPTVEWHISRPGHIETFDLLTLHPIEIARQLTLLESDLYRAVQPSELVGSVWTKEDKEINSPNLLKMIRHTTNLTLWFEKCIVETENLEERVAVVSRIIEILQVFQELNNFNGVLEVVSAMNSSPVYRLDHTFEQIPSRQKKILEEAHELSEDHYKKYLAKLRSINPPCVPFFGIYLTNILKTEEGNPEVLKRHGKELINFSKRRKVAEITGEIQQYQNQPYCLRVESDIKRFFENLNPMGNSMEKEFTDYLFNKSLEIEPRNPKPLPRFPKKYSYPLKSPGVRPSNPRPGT

The term IC50 denotes the concentration that inhibits the measured activity by half. Higher therefore signals weaker potency in that assay. The compound `CC(=O)N1CCC(C)(n2cc(C(=O)N[C@H](C)c3cccc(C(F)F)c3F)c(NC3CCN(C)CC3)cc2=O)C1` (stereo partly drawn) [Example 264, 1-(1-acetyl-3-methylpyrrolidin-3-yl)-N-((R)-1-(3-(difluoromethyl)-2-fluorophenyl)ethyl)-4-((1-methylpiperidin-4-yl)amino)-6-oxo-1,6-dihydropyridine-3-carboxamide] showed an IC50 of 2.2 nM.

In the case of `C[C@@H](NC(=O)c1cn(C2(C)CCN(C(=O)C3(F)CC3)C2)c(=O)cc1NC1CCN(C)CC1)c1cccc(C(F)F)c1F` (stereo partly drawn) [Example 267, N-((R)-1-(3-(difluoromethyl)-2-fluorophenyl)ethyl)-1-(1-(1-fluorocyclopropane-1-carbonyl)-3-methylpyrrolidin-3-yl)-4-((1-methylpiperidin-4-yl)amino)-6-oxo-1,6-dihydropyridine-3-carboxamide], the IC50 was determined as 2.44 nM.

Take `C[C@@H](NC(=O)c1cn([C@@]2(C)CCN(C(=O)C3(F)CC3)C2)c(=O)cc1NC1CCN(C)CC1)c1cccc(C(F)F)c1F` [Example 268, N-((R)-1-(3-(difluoromethyl)-2-fluorophenyl)ethyl)-1x-((S)-1-(1-fluorocyclopropane-1-carbonyl)-3-methylpyrrolidin-3-yl)-4-((1-methylpiperidin-4-yl)amino)-6-oxo-1,6-dihydropyridine-3-carboxamide]: the IC50 was 32.8 nM.

As for `C[C@@H](NC(=O)c1cn([C@]2(C)CCN(C(=O)C3(F)CC3)C2)c(=O)cc1NC1CCN(C)CC1)c1cccc(C(F)F)c1F` [Example 269, N-((R)-1-(3-(difluoromethyl)-2-fluorophenyl)ethyl)-1-((R)-1-(1-fluorocyclopropane-1-carbonyl)-3-methylpyrrolidin-3-yl)-4-((1-methylpiperidin-4-yl)amino)-6-oxo-1,6-dihydropyridine-3-carboxamide], half-maximal inhibition (IC50) was put at 1.21 nM.

Take `C[C@@H](NC(=O)c1cn(C2(C)CN(C(=O)C3CC3)C2)c(=O)cc1N[C@H]1[C@@H]2CN(C)C[C@@H]21)c1cccc(C(F)F)c1F` [Example 270, 1-(1-(cyclopropanecarbonyl)-3-methylazetidin-3-yl)-N-((R)-1-(3-(difluoromethyl)-2-fluorophenyl)ethyl)-4-(((1R,5S,6s)-3-methyl-3-azabicyclo[3.1.0]hexan-6-yl)amino)-6-oxo-1,6-dihydropyridine-3-carboxamide]: the IC50 is 1.74 nM.

The compound `C[C@@H](NC(=O)c1cn(C2(C(F)F)CC2)c(=O)cc1N[C@H]1[C@@H]2CNC[C@@H]21)c1cccc(C(F)F)c1F` [Example 279, 4-(((1R,5S,6s)-3-azabicyclo[3.1.0]hexan-6-yl)amino)-N-((R)-1-(3-(difluoromethyl)-2-fluorophenyl)ethyl)-1-(1-(difluoromethyl)cyclopropyl)-6-oxo-1,6-dihydropyridine-3-carboxamide] gave an IC50 of 37.3 nM.

In the case of `Cc1c([C@@H](C)NC(=O)c2cn(C3CCOCC3)c(=O)cc2NC2CCNCC2)cccc1C(F)(F)F` [Example 282, (R)-N-(1-(2-methyl-3-(trifluoromethyl)phenyl)ethyl)-6-oxo-4-(piperidin-4-ylamino)-1-(tetrahydro-2H-pyran-4-yl)-1,6-dihydropyridine-3-carboxamide], the IC50 turned out to be 34.4 nM.

In the case of `Cc1c([C@@H](C)NC(=O)c2cn(C3CCOCC3)c(=O)cc2NC2CCN(C)CC2(F)F)cccc1C(F)(F)F` (stereo partly drawn) [Example 283, 4-((3,3-difluoro-1-methylpiperidin-4-yl)amino)-N-((R)-1-(2-methyl-3-(trifluoromethyl)phenyl)ethyl)-6-oxo-1-(tetrahydro-2H-pyran-4-yl)-1,6-dihydropyridine-3-carboxamide], the IC50 amounted to 137 nM.

The compound `Cc1c([C@@H](C)NC(=O)c2cn(C3CCOCC3)c(=O)cc2NC2CCN(C3CC3)CC2)cccc1C(F)(F)F` [Example 284, (R)-4-((1-cyclopropylpiperidin-4-yl)amino)-N-(1-(2-methyl-3-(trifluoromethyl)phenyl)ethyl)-6-oxo-1-(tetrahydro-2H-pyran-4-yl)-1,6-dihydropyridine-3-carboxamide] had an IC50 of 23 nM.
